Results reported in US6265438A, “Vitamin compatible micronutrient supplement” (Heritage Technologies, LLC, priority 1999, dated 2001).
Read-outs that look alike come from different tables or passages of the source.

How the values were obtained:
[1] = Hygroscopicity (weight gain in 90% humidity); format: physicochemical; conditions: 140 hr
Description: Tribasic zinc sulfate can be prepared in a reaction system depicted in FIG. 1. Initially the reactor vessel contained 100 ml of dionized water.
Initially the reactor vessel contained 100 ml of an aqueous solution of ammonium sulfate (400 g/l).

[2] = 98 ° F., about 3 months, 131400 min, cited from earlier work
[3] = Chick feeding trial: feed intake, body weight, bone ash; format: in vivo; conditions: chicks fed 3 weeks
Description: Feed intake was recorded per pen.
Relative bioavailability estimates were calculated using slope ratios.

[4] = in vivo
Description: Chicks were fed the respective basal diets for 21 days. There were six pens each containing six chicks (three male and three female) for each of eight dietary treatments, for a total of 288 birds. Chicks were housed in two Petersime brooder units with stainless steel fittings and maintained on a 24-hour constant light schedule. Tap water containing no detectable zinc and feed were available ad libitum. Feed intake was recorded per pen. At the end of the experiment, birds were weighed individually, killed by cervical dislocation, and right tibia removed and frozen individually for zinc analysis.
Zinc concentrations in basal diet, water, zinc sources, and tibias were determined by flame atomic absorption spectrophotometry (Model 5000 with an AS-50 autosampler, Perkin-Elmer, Norwalk Conn. 06859-0156, Anonymous, 1982. Analytical Methods for Atomic Absorption Spectrophotometry. Perkin-Elmer Corp., Norwalk, Conn.). Diet samples were dried at 105° C. for 12 hours, then were dry ashed at 550° C. for 12 hours, solubilized in HCl, and filtered through 42 Whatman paper. Bones were boiled for approximately 10 minutes in deionized water and cleaned of all soft tissue. Tibias with associated cartilages were dried for 12 hours at 105° C., extracted in a Soxhlet apparatus with petroleum ether for 48 hours prior to ashing, and then solubilized as indicated above. Water was concentrated 10-fold by evaporation on a hotplate. Zinc sources were refluxed for 4 hours in 1:1 (v:v) concentrated HCl--HNO3 and filtered through 42 Whatman paper. Standards were matched for macroelement and acid concentrations as needed.
Data were analyzed by two-way ANOVA with a model that included zinc source, dietary zinc concentration, and their interaction. Each of the six pens were used as experimental units. Body weight, feed intake, and percentage of bone ash were also analyzed by the General Linear Models (GLM) (SAS Institute, 1990. SAS/STAT User's Guide (Release 6.04) SAS Institute Inc., Cary, N.C.) with an LSMEANS statement and PDIFF option to compare treatment means. Multiple linear regression of bone zinc concentration on added dietary zinc concentration was calculated using GLM. Relative bioavailability estimates were calculated using slope ratios.

Water solubility = format: physicochemical
[5] = Sandoval et al. (1997), similar sample, cited from earlier work
Camplobacter = experiment: Effect of zinc compounds on bacteria (colony count); format: cell-based, DMV strain; conditions: each of the bacteria tested
E. coli = experiment: as above; format: cell-based, DMV strain; conditions: each of the bacteria tested
Description: (§1) A series of 42 test tubes were filled with 7 ml of distilled water, and the pH of the water was adjusted to a pH of 7. Fourteen tubes were selected, and 1 ml of an aqueous stock solution containing DMV (DelMarVa-Delaware, Maryland, Virginia source) strain of E. coli was added to each of the 14 tubes. A second set of 14 tubes was selected. To each tube in this second set was added 1 ml stock solution containing a DMV strain of salmonella. A third set of 14 tubes was then selected, and to each these tubes was added 1 ml of a stock solution containing a DMV strain of camplobacter.
(§2) Two tubes from each of the three sets served as controls, and no zinc compounds were added to these controls. […] The pH of half of the tubes from each set was adjusted to a pH of 2 by the addition of concentrated HCl; the pH of the other half of the tubes was maintained at a pH of 7. Sufficient water was added to each tube to provide a final volume of 10 ml. All the tubes were placed in an incubator that was maintained at 37° C. for three hours.
(§3) After three hours, 0.20 ml was taken from each of the tubes, of which 0.1 ml was used to inoculate a MacConley Ager plate and 0.1 ml was used to inoculate a Blood Ager plate. […] After 24 hours, each late was examined and the number of colonies on each plate was evaluated.

Salmonella = experiment: as above; format: cell-based, DMV strain; conditions: each of the bacteria tested
Description: as §1, §2, §3

Molecule | Hygroscopicity [1] | Body Weight ([3]; added Zn 200 ppm) [g] | Bone Ash ([3]; added Zn 200 ppm) [ash wt %] | Feed Intake ([3]; added Zn 200 ppm) [g/bird] | Body Weight ([3]; added Zn 400 ppm) [g] | Bone Ash ([3]; added Zn 400 ppm) [ash wt %] | Feed Intake ([3]; added Zn 400 ppm) [g/bird] | Slope ± SE (regression of bone zinc concentration on added dietary zinc concentration) [4] | Bioavailability of zinc (in words) [4] | other results
O.O.O.O.O.O=S(=O)([O-])[O-].[Cu+2] [copper sulfate pentahydrate] | 14.4 % weight gain |  |  |  |  |  |  |  |  | 
Cc1ncc(CO)c(CO)c1O [pyridoxine] |  |  |  |  |  |  |  |  |  | Loss of pyridoxine activity ([2]; multi-vitamin premixes containing inorganic trace minerals): about 55%; Loss of pyridoxine activity ([2]; premix containing no trace minerals): about 24%
[Cl-].[Cl-].[Zn+2] [reagent grade zinc chloride, zinc chloride] | 126.5 % weight gain |  |  |  |  |  |  |  |  | 
O.O.O.O.O.O.O.O=S(=O)([O-])[O-].[Zn+2] [reagent grade zinc sulfate, zinc sulfate heptahydrate, reference compound] | 36.1 % weight gain | 574 | 44.2 | 710 | 559 | 42.8 | 679 | 0.1193 ± 0.0316 |  | 
O=S(=O)([O-])[O-].[Cu+2].[Cu+2].[Cu+2].[Cu+2].[OH-].[OH-].[OH-].[OH-].[OH-].[OH-] [tribasic copper sulfate] | about 1.73 % weight gain |  |  |  |  |  |  |  |  | Water solubility (Water solubility): about 430 mg Cu per liter
[O]=[Zn] [zinc oxide] |  |  |  |  | 588 | 44.4 | 709 | 0.0584 ± 0.0309 | lower (P<0.05) than that for other sources | Solubility in HCl ([5]; 60 min): 99%; Solubility in citric acid ([5]; 60 min): 69%; Solubility in neutral ammonium citrate ([5]; 60 min): 53%; Solubility in water [5]: insoluble; Relative bioavailability value (slope ratio) ([4]; chicken, 30240 min): 49.0±10.1%; Relative value ± SE (slope ratio of bone zinc regression) ([4]; chicken, 30240 min): 49.0 ± 10.1; 95% Confidence Interval of relative value [4]: 28.7-69.2
basic zinc chloride |  | 592 | 45.1 | 724 | 563 | 43.6 | 652 | 0.1273 ± 0.0316 | equal to that of reagent grade zinc sulfate | 
basic zinc sulfate |  | 585 | 44.4 | 690 | 599 | 44.5 | 708 | 0.1200 ± 0.0316 | equal to that of reagent grade zinc sulfate | 
tribasic zinc chloride |  |  |  |  |  |  |  |  |  | Growth rate of bacteria (in words) (Camplobacter): significantly reduced the growth rate; Growth rate of bacteria (in words) (E. coli): significantly reduced the growth rate; Growth rate of bacteria (in words) (Salmonella): significantly reduced the growth rate
tribasic zinc sulfate | about 4.65 % weight gain |  |  |  |  |  |  |  |  | Water solubility (Water solubility): about 15 mg zinc per liter
